The results in this text go back to ChEMBL document CHEMBL1138597, “Synthesis and biological evaluation of ((4-keto)-phenoxy)methyl biphenyl-4-sulfonamides: a class of potent aggrecanase-1 inhibitors” (Bioorg Med Chem Lett, 2009).

The structures appear in SMILES notation. The source made the active and inactive calls. The rule behind the calls is not given here.

Data set [1] addresses T1, A disintegrin and metalloproteinase with thrombospondin motifs 4 (Homo sapiens, UniProt O75173).
T1 sequence (O75173 whole entry): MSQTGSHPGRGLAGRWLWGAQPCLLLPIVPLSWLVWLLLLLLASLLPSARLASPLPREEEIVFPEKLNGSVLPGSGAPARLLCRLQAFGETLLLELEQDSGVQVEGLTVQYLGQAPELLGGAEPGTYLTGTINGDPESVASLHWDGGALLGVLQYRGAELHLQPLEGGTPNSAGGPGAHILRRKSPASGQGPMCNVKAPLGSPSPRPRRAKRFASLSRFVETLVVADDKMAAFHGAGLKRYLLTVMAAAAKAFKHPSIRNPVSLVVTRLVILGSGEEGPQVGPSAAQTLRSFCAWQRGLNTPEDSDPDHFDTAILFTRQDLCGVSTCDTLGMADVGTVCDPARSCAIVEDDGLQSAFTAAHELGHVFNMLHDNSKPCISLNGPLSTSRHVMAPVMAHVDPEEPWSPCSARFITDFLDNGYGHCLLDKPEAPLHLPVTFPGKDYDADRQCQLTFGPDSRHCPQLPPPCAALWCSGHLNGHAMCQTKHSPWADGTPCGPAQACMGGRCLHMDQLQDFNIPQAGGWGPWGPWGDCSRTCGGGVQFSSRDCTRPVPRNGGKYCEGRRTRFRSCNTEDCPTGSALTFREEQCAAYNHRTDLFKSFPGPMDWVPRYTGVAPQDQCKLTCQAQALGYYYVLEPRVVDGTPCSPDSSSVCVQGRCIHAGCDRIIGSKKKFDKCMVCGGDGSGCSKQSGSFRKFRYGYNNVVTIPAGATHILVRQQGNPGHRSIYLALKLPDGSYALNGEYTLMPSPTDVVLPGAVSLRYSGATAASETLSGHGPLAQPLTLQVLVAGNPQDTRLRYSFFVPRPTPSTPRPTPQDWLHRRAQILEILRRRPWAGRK
The data set can be described thus: Inhibition of aggrecanase1.

Data set [2] can be described thus: Half life in Sprague-Dawley rat at 2 mg/kg, iv or 25 mg/kg, po. The class given is ADME, organism-based. Conditions: in vivo.
A short description of data set [3]: Cmax in Sprague-Dawley rat at 2 mg/kg, iv or 25 mg/kg, po. The data set is classed as ADME, organism-based. Conditions: in vivo.
A further data set has as its target T2, Interstitial collagenase (Homo sapiens, UniProt P03956).
T2 sequence (P03956 whole entry): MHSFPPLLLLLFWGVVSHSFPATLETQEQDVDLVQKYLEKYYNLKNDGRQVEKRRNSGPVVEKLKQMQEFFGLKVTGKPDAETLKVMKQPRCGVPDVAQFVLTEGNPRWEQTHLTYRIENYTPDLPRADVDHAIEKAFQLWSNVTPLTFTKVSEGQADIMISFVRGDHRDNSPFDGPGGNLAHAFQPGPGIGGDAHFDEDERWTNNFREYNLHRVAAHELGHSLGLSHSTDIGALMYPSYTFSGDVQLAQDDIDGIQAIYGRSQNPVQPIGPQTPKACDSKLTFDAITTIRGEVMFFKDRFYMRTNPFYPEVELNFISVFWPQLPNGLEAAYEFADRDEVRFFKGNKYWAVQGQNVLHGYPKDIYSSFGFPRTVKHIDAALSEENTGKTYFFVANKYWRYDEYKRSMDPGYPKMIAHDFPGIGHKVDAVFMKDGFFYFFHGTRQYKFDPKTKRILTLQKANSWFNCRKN
The data set can be described thus: Inhibition of MMP1.

In data set [4] the target is 72 kDa type IV collagenase (Homo sapiens, UniProt P08253). The data set is described as follows: Inhibition of MMP2.
Chain of 72 kDa type IV collagenase (P08253 whole entry): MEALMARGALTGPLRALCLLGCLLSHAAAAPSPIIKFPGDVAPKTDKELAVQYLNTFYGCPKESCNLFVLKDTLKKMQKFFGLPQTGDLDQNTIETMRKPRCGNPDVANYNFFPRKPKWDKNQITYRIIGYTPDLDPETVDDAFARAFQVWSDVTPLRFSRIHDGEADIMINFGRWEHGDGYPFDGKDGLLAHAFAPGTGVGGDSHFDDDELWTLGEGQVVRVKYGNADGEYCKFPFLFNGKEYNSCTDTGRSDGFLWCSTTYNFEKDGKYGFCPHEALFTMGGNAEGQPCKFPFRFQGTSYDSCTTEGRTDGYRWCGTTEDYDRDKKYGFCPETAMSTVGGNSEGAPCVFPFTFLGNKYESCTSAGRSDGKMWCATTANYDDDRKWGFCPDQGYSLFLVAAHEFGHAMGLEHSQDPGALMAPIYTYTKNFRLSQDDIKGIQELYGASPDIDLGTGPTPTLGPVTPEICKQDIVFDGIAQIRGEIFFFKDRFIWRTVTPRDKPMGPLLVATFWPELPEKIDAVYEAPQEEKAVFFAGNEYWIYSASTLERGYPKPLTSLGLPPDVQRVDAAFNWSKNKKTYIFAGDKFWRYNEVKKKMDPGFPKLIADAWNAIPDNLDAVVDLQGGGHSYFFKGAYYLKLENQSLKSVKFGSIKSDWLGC
Another data set has as its target Collagenase 3 (Homo sapiens, UniProt P45452). The data set can be described thus: Inhibition of MMP13.
In data set [5] the target is Matrix metalloproteinase-14 (Homo sapiens, UniProt P50281). The data set can be described thus: Inhibition of MMP14.
Data set [6] addresses T3, A disintegrin and metalloproteinase with thrombospondin motifs 4 (Bos taurus) (UniProt Q9TT93).
T3 sequence (whole entry): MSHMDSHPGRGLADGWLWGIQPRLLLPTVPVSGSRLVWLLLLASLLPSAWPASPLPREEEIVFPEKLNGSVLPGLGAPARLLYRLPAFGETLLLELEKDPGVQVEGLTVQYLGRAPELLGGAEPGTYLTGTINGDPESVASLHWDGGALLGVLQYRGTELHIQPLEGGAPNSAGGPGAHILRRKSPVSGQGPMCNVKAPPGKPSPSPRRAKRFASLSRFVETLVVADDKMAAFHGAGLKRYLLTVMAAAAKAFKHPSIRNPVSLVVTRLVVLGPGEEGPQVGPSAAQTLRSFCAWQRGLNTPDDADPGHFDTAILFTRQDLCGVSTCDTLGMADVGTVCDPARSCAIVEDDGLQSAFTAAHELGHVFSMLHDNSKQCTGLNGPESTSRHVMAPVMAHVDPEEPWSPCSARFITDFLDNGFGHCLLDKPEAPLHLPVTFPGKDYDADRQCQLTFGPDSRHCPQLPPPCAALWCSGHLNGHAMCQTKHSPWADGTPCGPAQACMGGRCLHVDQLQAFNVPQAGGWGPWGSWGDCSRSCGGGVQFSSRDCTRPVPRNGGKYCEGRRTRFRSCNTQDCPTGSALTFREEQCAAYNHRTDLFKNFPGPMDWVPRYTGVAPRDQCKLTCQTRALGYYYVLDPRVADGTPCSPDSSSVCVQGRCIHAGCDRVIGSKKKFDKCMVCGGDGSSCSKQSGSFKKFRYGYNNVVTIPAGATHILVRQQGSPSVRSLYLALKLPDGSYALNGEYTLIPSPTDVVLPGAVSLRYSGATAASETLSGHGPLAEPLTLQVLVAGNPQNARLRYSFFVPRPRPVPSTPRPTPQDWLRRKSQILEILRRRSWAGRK
The data set is described as follows: Inhibition of IL1-induced aggrecanase activity in bovine cartilage explant assessed as release of degraded extracellular matrix aggrecan.

In data set [7] the target is T3, A disintegrin and metalloproteinase with thrombospondin motifs 4 (Bos taurus). The data set can be described thus: Inhibition of IL1-induced aggrecanase activity in bovine cartilage explant assessed as inhibition of proteoglycan degradation at 10 ug/ml after 3 days.
The nature of data set [8]: Clearance in Sprague-Dawley rat at 2 mg/kg, iv or 25 mg/kg, po. The class given is ADME, organism-based. As to conditions: in vivo.
The nature of data set [9]: Oral bioavailability in Sprague-Dawley rat at 25 mg/kg. The data set is classed as ADME, organism-based. As to conditions: in vivo.
In data set [10] the target is T4, A disintegrin and metalloproteinase with thrombospondin motifs 5 (Homo sapiens, UniProt Q9UNA0).
T4 sequence (Q9UNA0 whole entry): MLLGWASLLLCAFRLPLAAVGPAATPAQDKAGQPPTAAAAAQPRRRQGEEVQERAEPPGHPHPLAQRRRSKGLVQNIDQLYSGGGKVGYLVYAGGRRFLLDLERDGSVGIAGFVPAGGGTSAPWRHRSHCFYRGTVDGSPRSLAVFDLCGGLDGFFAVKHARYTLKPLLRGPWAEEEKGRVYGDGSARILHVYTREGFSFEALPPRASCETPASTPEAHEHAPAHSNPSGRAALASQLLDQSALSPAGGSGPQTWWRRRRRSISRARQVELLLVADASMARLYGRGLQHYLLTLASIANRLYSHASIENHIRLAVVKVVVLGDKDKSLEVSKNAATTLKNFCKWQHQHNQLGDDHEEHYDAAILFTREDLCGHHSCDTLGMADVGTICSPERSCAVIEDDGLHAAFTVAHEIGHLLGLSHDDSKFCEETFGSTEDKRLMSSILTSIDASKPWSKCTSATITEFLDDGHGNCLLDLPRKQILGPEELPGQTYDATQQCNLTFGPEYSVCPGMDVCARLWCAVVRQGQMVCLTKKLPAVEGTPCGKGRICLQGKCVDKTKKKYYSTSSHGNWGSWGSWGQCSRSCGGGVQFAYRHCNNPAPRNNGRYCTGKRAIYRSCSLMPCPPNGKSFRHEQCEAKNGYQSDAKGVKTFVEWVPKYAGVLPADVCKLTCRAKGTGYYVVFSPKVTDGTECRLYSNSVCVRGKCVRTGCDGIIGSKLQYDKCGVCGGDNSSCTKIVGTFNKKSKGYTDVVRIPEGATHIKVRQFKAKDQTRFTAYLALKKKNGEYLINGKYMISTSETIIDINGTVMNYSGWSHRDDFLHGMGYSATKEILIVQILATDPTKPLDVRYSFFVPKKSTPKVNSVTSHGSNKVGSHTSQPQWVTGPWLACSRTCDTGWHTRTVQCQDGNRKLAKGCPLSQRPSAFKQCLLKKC
The data set is described as follows: Inhibition of aggrecanase2.

Data set [11] concerns the target T5, A disintegrin and metalloproteinase with thrombospondin motifs 5 (Homo sapiens) (UniProt Q9UNA0).
T5 sequence (whole entry): T4 sequence (Q9UNA0 whole entry)
The data set is described as follows: Inhibition of aggrecanase2 at 2.5 uM.

What is called IC50 is the point on the concentration scale where inhibition reaches its midpoint. `CC(=O)c1ccc(OCc2ccc(-c3ccc(S(=O)(=O)N[C@@H](C(=O)O)C(C)C)cc3)cc2)cc1` displayed an IC50 in data set [1] of 0.43 µM.

As for `Cc1cccc(Oc2ccc(OCc3ccc(-c4ccc(S(=O)(=O)N[C@@H](C(=O)O)C(C)C)cc4)cc3)cc2)n1`, 0.73 µM corresponded to half-maximal inhibition in data set [1] (IC50).

In turn, `CC(C)[C@@H](NS(=O)(=O)c1ccc(-c2ccc(COc3ccc4c(c3)CCCC4=O)cc2)cc1F)C(=O)O` displayed a 50% inhibitory concentration (IC50) in data set [1] of 0.18 µM.

In the case of `Cc1c(CC(=O)Oc2ccc(-c3ccc(S(=O)(=O)N[C@@H](C(=O)O)C(C)C)cc3)cc2)oc2ccccc12`, the midpoint of inhibition in data set [1], the IC50, lay at 0.7 µM.

In [1], `CC(C)[C@@H](NS(=O)(=O)c1ccc(-c2ccc(COc3cc4cccc(C(F)(F)F)c4nc3C(F)(F)F)cc2)cc1)C(=O)O` registered an IC50 of 0.2 µM.

Compound `CC(C)[C@@H](NS(=O)(=O)c1ccc(-c2ccc(COc3cccc(N(C)C)c3)cc2)cc1)C(=O)O` registered an IC50 in data set [1] of 4.9 µM.

A word on the half-life: it is the time in which the quantity being followed falls by half. Read a high half-life as slow decline. A word on the Cmax: it is the highest concentration seen after dosing. For orientation: inhibition means the drop in the measured response relative to a control, in per cent. What is called bioavailability is the share of a dose that reaches the circulation, judged against a reference dose that is usually intravenous. A lower bioavailability goes with poor availability. As for `CC(C)[C@@H](NS(=O)(=O)c1ccc(-c2ccc(COc3ccc(C(=O)C4CCCCC4)cc3)cc2)cc1)C(=O)O`, the half-life in data set [2] amounted to 3.07 h. Further, the Cmax in [3] is 694 ng/mL. The IC50 is 0.09 µM in data set [1]; over 100 µM against Interstitial collagenase; 0.0053 µM in [4]; 0.015 µM against Collagenase 3; 1.64 µM in data set [5]. Moreover, the result in data set [6] was Active. In addition, the inhibition in data set [7] is 69%. The same compound showed a clearance in [8] of 6.9 mL/min/kg. Also, the bioavailability in [9] is 13%.

For `CC(C)[C@@H](NS(=O)(=O)c1ccc(-c2ccc(COc3ccc4c(c3)CCCC4=O)cc2)cc1OC(F)(F)F)C(=O)O`, the IC50 in data set [1] came out at 20 µM.

As to `CC(C)[C@@H](NS(=O)(=O)c1ccc(-c2ccc(COc3ccc(CN4CCOCC4)cc3)cc2)cc1)C(=O)O`, in [1], the half-maximal inhibitory concentration (IC50) worked out at 6 µM.

`CC(C)[C@@H](NS(=O)(=O)c1ccc(-c2ccc(COc3ccc4c(c3)CCCC4=O)cc2)cc1)C(=O)O`: the 50% inhibitory concentration (IC50) was 6.6 µM in data set [10]; 0.23 µM in [1]; over 100 µM against Interstitial collagenase; 0.0063 µM in data set [4]; 0.0022 µM on Collagenase 3; 1.3 µM in data set [5]. Besides, in data set [6], the outcome was Active. Also, the inhibition in data set [7] was 53%.

Take `CC(C)[C@@H](NS(=O)(=O)c1ccc(-c2ccc(COc3ccc(C(=O)N4CCOCC4)cc3)cc2)cc1)C(=O)O`: the 50% inhibitory concentration (IC50) in data set [1] stood at 5.2 µM.

Compound `CC(C)[C@@H](NS(=O)(=O)c1ccc(-c2ccc(COc3ccc4c(c3)CCCC4=O)cc2)cc1C(F)(F)F)C(=O)O` came in with an IC50 in data set [1] of 3.2 µM.

In [1], `CC(C)[C@@H](NS(=O)(=O)c1ccc(-c2ccc(COc3ccc(NC(=O)OC(C)(C)C)cc3)cc2)cc1)C(=O)O` displayed a half-maximal inhibitory concentration (IC50) of 0.59 µM.

`CC(C)[C@@H](NS(=O)(=O)c1ccc(-c2ccc(COc3ccc(C(=O)c4ccccc4)cc3)cc2)cc1)C(=O)O`: the half-maximal inhibitory concentration (IC50) in [1] amounted to 0.23 µM.

As to `CC(C)[C@@H](NS(=O)(=O)c1ccc(-c2ccc(COc3ccc4ccccc4n3)cc2)cc1)C(=O)O`, in [1], half-maximal inhibition (IC50) required 0.4 µM.

With `CC(C)C(=O)c1ccc(OCc2ccc(-c3ccc(S(=O)(=O)N[C@@H](C(=O)O)C(C)C)cc3)cc2)cc1`, the IC50 is over 100 µM on Interstitial collagenase, 0.0013 µM in data set [4], 0.0011 µM at Collagenase 3 and 0.915 µM in data set [5]. In addition, the outcome in data set [6] and in [7] was Active.

For the compound `CC(C)[C@@H](NS(=O)(=O)c1ccc(-c2ccc(COc3ccc(C(=O)c4ccc(F)cc4)cc3)cc2)cc1)C(=O)O`, the IC50 in data set [1] was 0.08 µM; on Interstitial collagenase, over 100 µM; in data set [4], 0.0036 µM; against Collagenase 3, 0.0063 µM; in data set [5], 0.22 µM. Moreover, the figures for the inhibition in [11] and in data set [7] were 55% and 71%, respectively. Moreover, in [6], the outcome was Active.
